# Assay results published in PubChem BioAssay (NCI).
#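 48-hour exposure; five concentrations; linearly interpolated endpoints. GI50 marks 50% less growth. TGI: total growth inhibition.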
# What was measured:
# Assay in all cases: NCI tumour cell line growth inhibition, 48 h
# [1] = system: 786-0 renal
# [2] = system: A498 renal
# [3] = system: A549 NSCLC
# [4] = system: ACHN renal
# [5] = system: BT-549 breast
# [6] = system: CAKI-1 renal
# [7] = system: CCRF-CEM leukemia
# [8] = system: COLO 205 colon
# [9] = system: DU-145 prostate
# [10] = system: EKVX NSCLC
# [11] = system: HCC-2998 colon
# [12] = system: HCT-116 colon
# [13] = system: HCT-15 colon
# [14] = system: HL-60(TB) leukemia
# [15] = system: HOP-62 NSCLC
# [16] = system: HOP-92 NSCLC
# [17] = system: HS 578T breast
# [18] = system: HT29 colon
# [19] = system: IGROV1 ovarian
# [20] = system: K-562 leukemia
# [21] = system: KM12 colon
# [22] = system: LOX IMVI melanoma
# [23] = system: M14 melanoma
# [24] = system: MALME-3M melanoma
# [25] = system: MCF7 breast
# [26] = system: MDA-MB-231 breast
# [27] = system: MDA-MB-435
# [28] = system: MDA-MB-468 breast
# [29] = system: MOLT-4 leukemia
# [30] = system: NCI-H226 lung
# [31] = system: NCI-H23 lung
# [32] = system: NCI-H460 lung
# [33] = system: NCI-H522 lung
# [34] = system: NCI/ADR-RES ovarian
# [35] = system: OVCAR-3 ovarian
# [36] = system: OVCAR-4 ovarian
# [37] = system: OVCAR-5 ovarian
# [38] = system: OVCAR-8 ovarian
# [39] = system: PC-3 prostate
# [40] = system: RPMI-8226 leukemia
# [41] = system: RXF 393 renal
# [42] = system: SF-268 CNS
# [43] = system: SF-295 CNS
# [44] = system: SF-539 CNS
# [45] = system: SK-MEL-2 melanoma
# [46] = system: SK-MEL-28 melanoma
# [47] = system: SK-MEL-5 melanoma
# [48] = system: SK-OV-3 ovarian
# [49] = system: SN12C renal
# [50] = system: SNB-19 CNS
# [51] = system: SNB-75 CNS
# [52] = system: SR leukemia
# [53] = system: SW-620 colon
# [54] = system: T-47D breast
# [55] = system: TK-10 renal
# [56] = system: U251 CNS
# [57] = system: UACC-257 melanoma
# [58] = system: UACC-62 melanoma
# [59] = system: UO-31 renal
smiles,measurement,setting,value
COc1ccc(/C=C/c2nc3ccccc3n3c(-c4cccc([N+](=O)[O-])c4)nnc23)cc1,GI50,[1],1.45 µM
same,TGI,[1],2.76 µM
same,GI50,[2],12.4 µM
same,TGI,[2],28.1 µM
same,GI50,[3],2.65 µM
same,TGI,[3],11 µM
same,GI50,[4],1.37 µM
same,TGI,[4],2.66 µM
same,GI50,[5],1.38 µM
same,TGI,[5],2.92 µM
same,GI50,[6],2.47 µM
same,TGI,[6],10.4 µM
same,GI50,[7],0.312 µM
same,TGI,[7],1.15 µM
same,GI50,[8],1.76 µM
same,TGI,[8],3.66 µM
same,GI50,[9],1.61 µM
same,TGI,[9],4.29 µM
same,GI50,[10],3.86 µM
same,TGI,[10],14.8 µM
same,GI50,[11],2.57 µM
same,TGI,[11],11.3 µM
same,GI50,[12],1.08 µM
same,TGI,[12],2.27 µM
same,GI50,[13],0.948 µM
same,TGI,[13],2.25 µM
same,GI50,[14],1.62 µM
same,TGI,[14],10.9 µM
same,GI50,[15],5.47 µM
same,TGI,[15],18.2 µM
same,GI50,[16],1.91 µM
same,TGI,[16],4.93 µM
same,GI50,[17],3.99 µM
same,TGI,[17],20.7 µM
same,GI50,[18],1.12 µM
same,TGI,[18],2.32 µM
same,GI50,[19],1.89 µM
same,TGI,[19],3.77 µM
same,GI50,[20],0.307 µM
same,TGI,[20],2.14 µM
same,GI50,[21],2.62 µM
same,TGI,[21],10.8 µM
same,GI50,[22],0.148 µM
same,TGI,[22],0.289 µM
same,GI50,[23],0.76 µM
same,TGI,[23],2.17 µM
same,GI50,[24],0.581 µM
same,TGI,[24],1.98 µM
same,GI50,[25],1.83 µM
same,TGI,[25],10.1 µM
same,GI50,[26],1.8 µM
same,TGI,[26],4.55 µM
same,GI50,[27],1.9 µM
same,TGI,[27],5.65 µM
same,GI50,[28],1.13 µM
same,TGI,[28],2.85 µM
same,GI50,[29],1.21 µM
same,TGI,[29],4.1 µM
same,GI50,[30],0.626 µM
same,TGI,[30],2.49 µM
same,GI50,[31],1.51 µM
same,TGI,[31],3.01 µM
same,GI50,[32],1.69 µM
same,TGI,[32],4.26 µM
same,GI50,[33],0.12 µM
same,TGI,[33],0.258 µM
same,GI50,[34],2.1 µM
same,TGI,[34],6.93 µM
same,GI50,[35],1.27 µM
same,TGI,[35],2.61 µM
same,GI50,[36],1.68 µM
same,TGI,[36],5.32 µM
same,GI50,[37],1.77 µM
same,TGI,[37],3.61 µM
same,GI50,[38],1.75 µM
same,TGI,[38],4.8 µM
same,GI50,[39],3.01 µM
same,TGI,[39],14.5 µM
same,GI50,[40],1.44 µM
same,TGI,[40],4.03 µM
same,GI50,[41],1.24 µM
same,TGI,[41],2.55 µM
same,GI50,[42],2.77 µM
same,TGI,[42],10.2 µM
same,GI50,[43],9.61 µM
same,TGI,[43],21.4 µM
same,GI50,[44],1.44 µM
same,TGI,[44],2.75 µM
same,GI50,[45],2.63 µM
same,TGI,[45],9.09 µM
same,GI50,[46],2.19 µM
same,TGI,[46],4.94 µM
same,GI50,[47],2.06 µM
same,TGI,[47],5.38 µM
same,GI50,[48],5.22 µM
same,TGI,[48],17.6 µM
same,GI50,[49],1.14 µM
same,TGI,[49],2.36 µM
same,GI50,[50],5.84 µM
same,TGI,[50],18.8 µM
same,GI50,[51],4.12 µM
same,TGI,[51],15.9 µM
same,GI50,[52],0.247 µM
same,TGI,[52],1.36 µM
same,GI50,[53],0.631 µM
same,TGI,[53],1.87 µM
same,GI50,[54],3.76 µM
same,TGI,[54],16.1 µM
same,GI50,[55],2.87 µM
same,TGI,[55],9.9 µM
same,GI50,[56],1.52 µM
same,TGI,[56],3.3 µM
same,GI50,[57],3.65 µM
same,TGI,[57],15 µM
same,GI50,[58],1.7 µM
same,TGI,[58],4.3 µM
same,GI50,[59],2 µM
same,TGI,[59],8.8 µM
